What was measured:
Format in all cases: cell-based
CRC1850 = assay: Viability of primary patient-derived colorectal cancer cell line; conditions: CRC1850, Liver Met
[1] = system: Hippo pathway TEAD reporter cells; assay: Hippo signalling TEAD reporter dose response; conditions: 24 hr, inhibition of the Hippo pathway, read-out: IC50 Hippo
Experimental: The Hippo TEAD reporter cells were seeded as 100,000 cells in 100 μL assay medium per well in 96-well plates (Corning cat. #3903, Falcon cat. #353072). The assay medium consists of the growth medium without G-418. The next day, 5-fold dilutions of the compounds in DMSO were added to the cells at a final concentration of 1% DMSO. After 24 hr incubation, the viability of the cells was determined with CCK-8 cell viability reagent while the luciferase reporter activity was determined with Steady-Glo luciferase reagent.
The average signal from DMSO treated wells was calculated for each plate, and the signal from each treatment well was normalized against the average DMSO signal from the respective plate. The normalized values were plotted against the concentrations tested using GraphPad Prism 5, and the EC50 values were determined through either three- or four-parameter nonlinear regression.

CRC1463 = assay: Viability of primary patient-derived colorectal cancer cell line
CRC2255 = assay: as above

CCc1ccc(OCc2nnc(SC3CCCC3=O)n2C(C)c2ccccc2)cc1 (stereo not shown) [GB1874]
EC50 (CRC1850): 37 µM | IC50 [1]: > 100 µM | EC50 (CRC1463): 27 µM | EC50 (CRC2255): 20 µM

Reference: patent publication US12661338B2, “Heterocyclic compounds as modulators of beta-catenin / TCF4 interaction” (AGENCY FOR SCIENCE, TECHNOLOGY AND RESEARCH, priority 2019, dated 2026)
